This is an account of results in patent US20110312945A1, “CRTH2 MODULATORS” (priority 2008, published 2011).

A value given as a limit tells only on which side of the number the result lay.

Assay [1] concerns the target T1, CRTH2 (Homo sapiens, UniProt Q9Y5Y4).
T1 construct: polymorphonuclear cells (0.5 ml; 10^6/ml cells) in PBS containing 0.9 mM CaCl2 and 0.5 mM MgCl2; endogenous in cells; host or cells: polymorphonuclear cells (eosinophils gated by flow cytometry)
T1 sequence (Q9Y5Y4 1-395): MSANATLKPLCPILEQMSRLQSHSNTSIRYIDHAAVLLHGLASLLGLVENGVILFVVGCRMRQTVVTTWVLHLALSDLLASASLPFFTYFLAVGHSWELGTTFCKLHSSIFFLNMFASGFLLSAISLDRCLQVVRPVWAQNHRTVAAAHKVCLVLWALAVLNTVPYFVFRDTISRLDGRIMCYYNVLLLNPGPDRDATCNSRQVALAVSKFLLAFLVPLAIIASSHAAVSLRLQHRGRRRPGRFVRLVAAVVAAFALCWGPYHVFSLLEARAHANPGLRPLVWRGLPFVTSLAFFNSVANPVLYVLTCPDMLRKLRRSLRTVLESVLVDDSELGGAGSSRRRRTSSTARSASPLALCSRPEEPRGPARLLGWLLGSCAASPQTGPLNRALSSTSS
As to the kind of experiment: DPBS CD11b Antagonist Assay. The class given is cell-based. The note with it: polymorphonuclear cells in PBS, eosinophil CD11b expression, challenge with 15R-Methyl-PGD2 (10 nM). In short, it runs like this: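 Human polymorphonuclear cells (10^6/ml, PBS with 0.9 mM CaCl2, 0.5 mM MgCl2) preincubated with compound 10 min at room temperature, then stimulated with 10 nM 15R-methyl-PGD2. Eosinophil CD11b (FITC) measured by flow cytometry, gating on high side scatter and VLA-4; corrected for isotype control.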

Assay [2] concerns the target T1, CRTH2. Kind of assay: Human Whole Blood CD11b Antagonist Assay. In kind it is cell-based. Particulars: eosinophil CD11b expression, challenge with 15R-Methyl-PGD2 (10 nM). The method, then: Human Whole Blood CD11b Antagonist Assay (modified from Nicholson, et al. Pulmonary Pharmacology and Therapeutics: 20 (2007); 52-59). The potential CRTH2 antagonist activity of certain compounds was tested in human whole blood using an assay that tests the ability of the compounds to block the CD11b expression in eosinophils by 15-R-methyl-PGD2. A CRTH2 antagonist should block CD11b expression by subsequently added 15-Methyl-PGD2. Human whole blood (200 μL) was incubated at 37° C. for 10 minutes in the presence of various concentrations of test compounds before being challenged with the agonist 15R-Methyl-PGD2 (10 nM). Reactions were terminated by the addition of ice-cold PBS+0.5% BSA+2 mMEDTA (1 mL) and centrifugation (300×g for 5 minutes at 4° C.) Cells were then incubated at 4° C. for 10 min in the presence of human IgG. Cells were then incubated for 30-45 min with a mixture of PE-Cy5-labeled mouse anti-human CD16 (10 ul; BD Biosciences) and FITC-labeled mouse anti-human CD11b (10 μL; Beckman Coulter.) After rinsing (1 mL ice-cold PBS+0.5% BSA+2 mMEDTA), red blood cells were lysed by the addition of 1 mL ice-cold H2O to the cell pellet for 30 sec-1 min immediately followed by the addition of 3.5% NaCl (300 μL.) Cells were then rinsed (2x−1 ml ice cold PBS+0.5% BSA+2 mMEDTA) and fixed in PBS containing 1% formaldehyde. The distribution of fluorescence intensities was measured by flow cytometry. Eosinophils were gated out on the basis of their granularity (high side scatter) and absence of CD-16. CD11b was then measured on this eosinophil population on the basis of fluorescence due to FITC.

Assay [3] relates to DK-PGD2-induced systemic eosinophilia. As to the kind of experiment: DK-PGD2-Induced Systemic Eosinophilia in Rats. The class given is in vivo. Particulars: Rattus norvegicus, Eosinophil; female Sprague-Dawley rats, oral dosing 30 min before intracardiac 10 μg DK-PGD2, blood eosinophils at 60 min. The method, then: DK-PGD2-Induced Systemic Eosinophilia in Rats. Female Sprague-Dawley rats (175-250 g) were dosed orally with test compound (or vehicle). Thirty minutes after dosing, animals were anaesthetized with isoflurane. Following induction of anaesthesia, animals received an intracardiac injection of 10 μg DK-PGD2 in 0.3 ml heparinized (10 U/ml) saline. Control animals received an injection of 0.3 ml heparinized saline. Sixty minutes after the intracardiac injection, animals were again anesthetized with isoflurane and a blood sample was drawn from the abdominal aorta (into heparin) while the rat was anaesthetized but not dead. An aliquot of blood (500 μL) was mixed with an equal volume of 4% dextran (mw 500,000) and the erythrocytes were allowed to settle. A cytospin preparation was made from the resulting leukocyte rich fraction (top) and the cytospin was fixed and stained with Diff-Quick Stain kit (Dade Behring Inc, Newark, Del.). An aliquot of the leukocyte rich fraction was taken for total leukocyte count using flow cytometer (Guava EasyCyte Mini system). Differential leukocyte counts were obtained from the cytospin preparations. Blood eosinophil numbers were determined from the total leukocyte count and the percentage eosinophils.

Consider `Cc1c(Cc2ccccc2S(=O)(=O)N2CCOCC2)c2c(n1CC(=O)O)CCCCC2` [Example I-21, 2-(2-Methyl-3-(2-(morpholinosulfonyl)benzyl)-5,6,7,8-tetrahydrocyclohepta[b]pyrrol-1(4H)-yl)acetic acid], for which the IC50 – broadly, the point on the concentration scale where inhibition reaches its midpoint – was 5 to 100 nM in assay [1] and 100 to 500 nM in assay [2]. In addition, in assay [3], the ED50 (commonly the dose that gives a 50% effect, or the effect in half of the subjects) was < 1 mg/kg.
On to `Cc1c(Cc2ccc(S(=O)(=O)N3CCCC3)cc2)c2c(n1CC(=O)O)CCCC2` [Example I-1, 2-(2-Methyl-3-(4-(pyrrolidin-1-ylsulfonyl)benzyl)-4,5,6,7-tetrahydro-1H-indol-1-yl)acetic acid], for which the results for the IC50 in assay [1] and in assay [2] were < 5 nM and 5 to 100 nM, respectively. Moreover, in assay [3], the ED50 was in the range of 1 to 10 mg/kg.
`Cc1c(Cc2ccc(S(=O)(=O)N3CCCC3)cc2)c2c(n1CC(=O)O)CCCCC2` [Example I-20, 2-(2-Methyl-3-(4-(pyrrolidin-1-ylsulfonyl)benzyl)-5,6,7,8-tetrahydrocyclohepta[b]pyrrol-1(4H)-yl)acetic acid]: the IC50 in assay [1] and in assay [2] was 5 to 100 nM each time. Also, the 50% effective dose (ED50) in assay [3] was < 1 mg/kg.
On to `Cc1c(Cc2ccccc2S(=O)(=O)N2CCOCC2)c2c(n1CC(=O)O)CC(C)(C)CC2=O` [Example I-40, 2-(2,6,6-trimethyl-3-(2-(morpholinosulfonyl)benzyl)-4-oxo-4,5,6,7-tetrahydro-1H-indol-1-yl)acetic acid], for which the IC50 in assay [1] was < 5 nM; in assay [2] it was 5 to 100 nM. Further, the ED50 in assay [3] was < 1 mg/kg.
On the same counts, the results for `Cc1c(Cc2ccccc2S(=O)(=O)N2CCOCC2)c2c(n1CC(=O)O)CCC(C)(C)C2` [Example I-17, 2-(2,5,5-Trimethyl-3-(2-(morpholinosulfonyl)benzyl)-4,5,6,7-tetrahydro-1H-indol-1-yl)acetic acid] are < 5 nM, 5 to 100 nM and < 1 mg/kg.
